Laboratory results published in patent publication US20060239999A1, “Preventive and/or therapeutic drugs for asthma” (priority 2002, published 2006).
Each block holds one compound with its values, some of them ahead of it.

Legend:
GPR4 = target: T1, GPR4 (Homo sapiens, UniProt P46093); assay: Antagonistic action on GPR4 (luciferase reporter in GPR4 assay cells induced by 17β-estradiol); type: cell-based; details: 10 nmol/L 17β-estradiol, 6 hours, luciferase luminescence
T1 construct: expressed in transfected cells; host or cells: KJMGER8 (Namalwa KJM-1 human B-cell line stably expressing Gal4-ER), co-transfected with pAGal9-GPR4 and the CRE-luciferase reporter pACREpluc
T1 sequence (P46093 whole entry, the tested form may be a part): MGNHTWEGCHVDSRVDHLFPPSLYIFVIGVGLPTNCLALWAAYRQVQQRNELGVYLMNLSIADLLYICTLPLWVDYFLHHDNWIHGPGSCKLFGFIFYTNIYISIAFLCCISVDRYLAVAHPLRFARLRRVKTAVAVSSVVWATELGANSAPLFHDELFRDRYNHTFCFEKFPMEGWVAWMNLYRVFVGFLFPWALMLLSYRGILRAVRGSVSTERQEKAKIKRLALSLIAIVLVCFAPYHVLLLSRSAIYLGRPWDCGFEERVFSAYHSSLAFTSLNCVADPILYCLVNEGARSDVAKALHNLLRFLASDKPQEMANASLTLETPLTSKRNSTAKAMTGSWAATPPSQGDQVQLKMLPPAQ
Procedure: Cells for GPR4 assay prepared in Referential Example 61 (said assay cells express GPR4 by stimulation with 17β-estradiol) were seeded on white plates at the rate of 10^5 cells/well, and a solution where 17β-estradiol (manufactured by Sigma) was diluted with a medium so as to make 10 nmol/L in the reaction solution and test compounds were added to the plate and the mixture was incubated at 37° C. for 6 hours in a 5% CO2 incubator. After that, a Steady Glo Luciferase Assay System (manufactured by Promega) solution was added to stop the reaction and the amount of luminescence during one second was measured using a Top Count (Packard, Meriden, Conn., U.S.
Activity of the each of test compounds (antagonistic action) was expressed by an inhibition rate calculated on the basis of counts per second in the presence or absence of 17β-estradiol as shown by the following formula. IC50 value was calculated from the inhibition rate by a linear approximate analysis of the Logit-Log conversion method.
In the formula, A, B and C each have the following meaning, respectively.
A: counts per second when 17β-estradiol and the test compound were added
B: counts per second when neither 17β-estradiol nor the test compound was added
C: counts per second when only 17β-estradiol was added
Inhibition Rate (%) [1−{(A−B)/(C−B)}]×100
1 μg of mRNA derived from human lung (manufactured by Clontech) was used and a single-stranded cDNA was synthesized using a SUPERSCRIPT First-Stranded Synthesis System for RT-PCR (manufactured by Gibco). GPR4 cDNA was prepared by PCR using a solution (5 μl) where said single-stranded cDNA was diluted with water to an extent of 250-fold as a template and synthetic DNA having nucleotide sequences represented by SEQ ID NO: 7 and NO: 8 as a GPR4 gene-specific primer. Sequence of the GPR4 gene-specific primer was designed on the basis of sequence information of GPR4 gene (GenBank Accession No. U21051). With regard to an enzyme, PfuTurbo DNA Polymerase (manufactured by Stratagene) was used. With regard to a buffer for conducting the PCR, a buffer of 10-fold concentration attached to the enzyme was used. The PCR was conducted by treating at 95° C. for 5 minutes and conducting 30 cycles of reaction each comprising at 94° C. for 1 minute, at 60° C. for 1 minute and at 72° C. for 1 minute using a thermal cycler DNA engine (manufactured by MJ Research).
2 μg of plasmid pAGal9-GPR4 with inducible expression of GPR4 and 2 μg of reporter plasmid pACREpluc were co-transferred into 6×10^6 cell of KJMGER8 by the above-mentioned electroporation. The transformants were suspended in 8 ml of an RPMI 1640-ITPSG medium and cultured in a CO2 incubator at 37° C. for 24 hours. After the cultivation, blasticidin S (2.0 μg/ml), hygromycin B (300 μg/ml) and geneticin (500 μg/ml) were added and cultivation was carried-out for 14 days more, and stable transformants (called GPR4 assay cells) were obtained. The transformants were subcultured in an RPMI 1640-ITPSG medium containing blasticidin S (2.0 μg/ml), hygromycin B (300 μg/ml) and geneticin (500 μg/ml).

BALB/c male mice [1] = assay: Suppressive effect on antigen-induced bronchoconstriction (airway resistance penh); type: in vivo; details: for AUC0-30min of the bronchoconstriction: ovalbumin-sensitized mice, mean value±standard error
Procedure: (§1) Suspention prepared by mixing of 50 μg of ovalbumin and 1 mg of aluminum hydroxide in a physiological saline solution (Otsuka Physiological Saline; manufactured by Otsuka. Pharmaceutical) was intraperitoneally administered to BALB/c male mice (7 weeks age) for two times with an interval of one week to sensitize and, after 14, 18 and 22 days from the final sensitization, 1% solution of ovalbumin in a physiological saline solution or a physiological saline solution (a negative control group) was inhaled for 30 minutes respectively to induce an antigen-antibody reaction. In the case of measurement of bronchoconstriction, compound 1 was suspended in a 0.5% aqueous solution of methylcellulose (solvent) and, 1 hour before inhalation of antigen after 14 days from the final sensitization 100 mg/kg of the suspention was orally administered or, 5 minutes before that, 30 mg/kg was intraperitoneally administered. In the case of measurement of airway hyperreactivity or eosinophil infiltration in airway, compound 1 was suspended as mentioned above and, after 14, 18 and 22 days from the final sensitization, 100 mg/kg of the suspention was orally administered 1 hour before and 6 hours after inhalation of each antigen. As a reference drug, prednisolone which is a steroid used for the treatment of asthma was orally administered at a dose of 30 mg/kg (as a solution being suspended in 0.5% aqueous solution of methylcellulose) once, 1 hour before inhalation of each antigen after 14, 18 and 22 days from the final sensitization. In a positive control group, the solvent was administered instead of a suspension of a test compound. (In the case of measurement of bronchoconstriction, the solvent was administered once, 1 hour before inhalation of antigen after 14 days from the final sensitization as for oral administration, or the solvent was administered once 30 minutes before inhalation of antigen after 14 days from the final sensitization as for intraperitoneal administration. In the case of measurement of airway hyperreactivity and eosinophil infiltration in airway, the solvent was administered 1 hour before and 6 hours after inhalation of each antigen after 14, 18 and 22 days from the final sensitization.)
(§2) With regard to the bronchoconstriction, airway resistance (penh) was evaluated by a measuring apparatus for respiration function of mice (BioSystems XA; Buxco Electronics, Inc., Sharon, Conn., U.S.A.) for 30 minutes from immediately after inhalation of antigen after 14 days from the final sensitization and evaluation was conducted by calculating the area under curve during the 30 minutes (AUC0-30 min). Further, after 24 hours from final inhalation of antigen, airway hyperreactivity and eosinophil infiltration in bronchoalveolar lavage fluid were evaluated.

BALB/c male mice [2] = assay: Suppressive effect on antigen-induced airway hyperreactivity (methacholine inhalation); type: in vivo; details: for airway hyperreactivity suppressed as compared with the positive control group: compound 1 100 mg/kg orally, prednisolone 30 mg/kg orally; for AUC of airway hyperreactivity: methacholine 1.5 to 25 mg/ml, compound 1 100 mg/kg orally 1 hour before and 6 hours after each antigen, prednisolone 30 mg/kg orally once before each antigen, mean value±standard error
Procedure: as §1, with “(In the case of measurement of bronchoconstriction, the solvent was administered once, 1 hour before inhalation of antigen after 14 days from the final sensitization as for oral administration, or the solvent was administered once 30 minutes before inhalation of antigen after 14 days from the final sensitization as for intraperitoneal administration. In the case of measurement of airway hyperreactivity and eosinophil infiltration in airway, the solvent was administered 1 hour before and 6 hours after inhalation of each antigen after 14, 18 and 22 days from the final sensitization.)” left out
as §2
(§3) With regard to eosinophil filtration, total cell numbers in the bronchoalveolar lavage fluid were measured by an automatic measuring apparatus for blood cell count (Celltac α MEK-6158; Nippon Koden, Tokyo), then the smears were prepared by Cytospin 3 (Shandon, Inc., Pittsburgh, Pa., U.S.A.) and evaluation was conducted by a morphological classification under a microscope. Eosinophil numbers were calculated by multiplying the total cell numbers by percentage of eosinophil cells. […]

BALB/c male mice [3] = assay: Suppressive effect on antigen-induced eosinophil infiltration in airway (bronchoalveolar lavage fluid); type: in vivo; details: for Eosinophil numbers in bronchoalveolar lavage fluid: 24 hours after final antigen inhalation, compound 1 100 mg/kg orally 1 hour before and 6 hours after each antigen, prednisolone 30 mg/kg orally once before each antigen; for eosinophil numbers decreased as compared with the positive control group: compound 1 100 mg/kg orally, prednisolone 30 mg/kg orally
Procedure: as §1, with “(In the case of measurement of bronchoconstriction, the solvent was administered once, 1 hour before inhalation of antigen after 14 days from the final sensitization as for oral administration, or the solvent was administered once 30 minutes before inhalation of antigen after 14 days from the final sensitization as for intraperitoneal administration. In the case of measurement of airway hyperreactivity and eosinophil infiltration in airway, the solvent was administered 1 hour before and 6 hours after inhalation of each antigen after 14, 18 and 22 days from the final sensitization.)” left out
as §2, §3

Compound: CCc1nc2c(C)cc(C)nc2n1Cc1ccc2c(c1)CCc1cc(CN3CC=CCC3)ccc1N2 [Compound 2, 2-(2-Ethyl-5,7-dimethyl-3H-imidazo[4,5-b]pyridin-3-ylmethyl)-8-(1,2,5,6-tetrahydropyridin-1-ylmethyl)-10,11-dihydro-5H-dibenz[b,f]azepine]
IC50 (GPR4): 3.2 nM

Compound: C[C@]12C=CC(=O)C=C1CC[C@@H]1[C@@H]2[C@@H](O)C[C@@]2(C)[C@H]1CC[C@]2(O)C(=O)CO [prednisolone, reference compound]
airway hyperreactivity suppressed as compared with the positive control group (BALB/c male mice [2]): 43%
AUC of airway hyperreactivity (BALB/c male mice [2]): 269.12±46.7
Eosinophil numbers in bronchoalveolar lavage fluid (BALB/c male mice [3]): 0.76±0.25 ×10^5 per mouse
eosinophil numbers decreased as compared with the positive control group (BALB/c male mice [3]): 73%

Compound: CCc1nc2c(C)cc(C)nc2n1Cc1ccc2c(c1)CCc1cc(CN3CC(C)CC(C)C3)ccc1N2 (centres unmarked) [Compound 5]
IC50 (GPR4): 14 nM

More lines, main results first:

IC50 (GPR4): 5.8 nM
Compound: CCc1nc2c(C)cc(C)nc2n1Cc1ccc2c(c1)CCc1cc(CN3CCOCC3)ccc1N2 [Compound 4, 2-(2-Ethyl-5,7-dimethyl-3H-imidazo[4,5-b]pyridin-3-ylmethyl)-8-morpholinomethyl-10,11-dihydro-5H-dibenz[b,f]a zepine]

IC50 (GPR4): 2.3 nM
Compound: CCc1nc2c(C)cc(C)nc2n1Cc1ccc2c(c1)CCc1cc(CN3CCCC3)ccc1N2 [Compound 3, 2-(2-Ethyl-5,7-dimethyl-3H-imidazo[4,5-b]pyridin-3-ylmethyl)-8-(pyrrolidin-1-ylmethyl)-10,11-dihydro-5H-dibenz[b,f]azepine]

IC50 (GPR4): 4 nM
Compound: CCc1nc2c(C)cc(C)nc2n1Cc1ccc2c(c1)CCc1cc(CN3CCN(C)CC3)ccc1N2 [Compound 1, 2-(2-Ethyl-5,7-dimethyl-3H-imidazo[4,5-b]pyridin-3-ylmethyl)-8-(4-methylpiperazin-1-ylmethyl)-10,11-dihydro-5H-dibenz[b,f]azepine]
bronchoconstriction suppressed as compared with the positive control group (BALB/c male mice [1]; 30 mg/kg intraperitoneally): 105%
bronchoconstriction suppressed as compared with the positive control group (BALB/c male mice [1]; 100 mg/kg orally): 44%
AUC0-30min of the bronchoconstriction (BALB/c male mice [1]; 30 mg/kg intraperitoneally before antigen inhalation): 14.60±0.46
AUC0-30min of the bronchoconstriction (BALB/c male mice [1]; 100 mg/kg orally 1 hour before antigen inhalation): 16.85±0.84
airway hyperreactivity suppressed as compared with the positive control group (BALB/c male mice [2]): 60%
AUC of airway hyperreactivity (BALB/c male mice [2]): 243.23±48.7
Eosinophil numbers in bronchoalveolar lavage fluid (BALB/c male mice [3]): 0.92±0.26 ×10^5 per mouse
eosinophil numbers decreased as compared with the positive control group (BALB/c male mice [3]): 67%
